The record followed here is patent US5461035A, “Short peptides with insulin activity” (priority 1990, dated 1995).

Residues, ends and D or L forms follow the SMILES beside them.

One experiment has as its system Balb-C mice. Nature of the experiment: Blood glucose profile in mice. The format is in vivo. The following applies: intravenous. The method, then: Female Charles River Wiga Balb-C mice weighing 17 to 21 g (about 30 days old) receive a standard diet. The mice receive no food for 16 hours before the start of the experiment. 5 animals in each experimental group receive intravenous administration of an aqueous solution (pH 6) of the compound from Example 4 (octapeptide). Volume administered 0.3 ml/animal.
The average for each experimental group is indicated in each case.

Experiment [1] relates to Rat lipocytes. Nature of the experiment: Esterification in vitro of glycerol 3-phosphate in saponin-permeabilized lipocytes. The format is cell-based. The method, then:
This test measures the esterification of glycerol 3-phosphate which can be stimulated by insulin in lipid products (triglycerides, phospholipids). The enzymes of lipid synthesis (for example acyl-CoA: L-glycerol 3-phosphate acyltransferase) are involved in this, including a functional insulin signal-transmission cascade. […] The incubation is continued after addition of L-[U-^14 C]-glycerol 3-phosphate. Toluene-soluble scintillation cocktail is added and the lipid is separated from the aqueous phase by centrifugation. The toluene phase containing the lipid is removed and its radioactivity is determined.

Experiment [2] has as its system Rat lipocytes. Nature of the experiment: Glucose transport, 2-deoxy-D-[1-3H]-glucose, rat lipocytes. The format is cell-based. Conditions: glucose 0.2 mM. As for the experimental part:
Epididymal adipose tissue (Wistar rat, 160-180 g, no feed restriction) is digested with collagenase, and the resulting single lipocytes are washed several times by flotation. Lipocytes and pieces of diaphragm are prepared as in Example 5. The following tests measure exclusively the specific glucose transport which can be stimulated by insulin (facilitated diffusion) through the plasma membrane by means of glucose carriers, including the insulin signal-transmission cascade. Any effect of glucose metabolism on glucose transport is ruled out by using the non-metabolizable glucose analog. a) Rat lipocytes are incubated in the presence or absence of insulin or peptide with 2-deoxy-D-[1-^3 H]-glucose (final concentration of D-glucose 0.2 mM) and L-[1-^14 C]-glucose (not transportable). To determine the radioactivity ([^3 H] and [^14 C]) the cells are separated from the medium by centrifugation through an oil layer. The specific stereoselective glucose transport is calculated as the difference between the total cell-bound radioactivity ([^3 H]-glucose) and the associated radioactivity due to diffusion and non-specific effects ([C]-glucose).

In experiment [3] the test system is Rat lipocytes. Description: Lipogenesis in trypsin-treated rat lipocytes (insulin receptor inactivated). The experiment is classed as cell-based. As for the experimental part: Rat lipocytes from Example 5 are treated with low concentrations of trypsin to inactivate the insulin receptor by proteolysis. After addition of protease inhibitors, the cells are washed twice by flotation, and the incubation is continued at 37° C. for 15 min. These cells are then used for the test of stimulation of lipogenesis by the peptides. […] This means that this test measures stimulation of lipogenesis owing to interventions in the insulin signal-transmission cascade after receptor binding of insulin.

In experiment [4] the test system is Rat lipocytes. Description: Glucose uptake, D-[U-14C]-glucose, rat lipocytes. The format is cell-based. Conditions: D-glucose 22 μM. The method, then:
(§1) The biological activity of the peptides according to the invention, of the formula I and II, is determined using lipocytes and pieces of diaphragm obtained by dissection from rats. The term tripeptide means Tyr Cys Asn-OH and hexapeptide means acetyl-Leu Glu Asn Tyr Cys Asn-OH. The term "baseline" means the activity without stimulation, insulin means human insulin and dpm means radioactive disintegrations per minute. The term peptid denotes peptides having insulin activity according to the present invention. Rat lipocytes were prepared as follows:
Epididymal adipose tissue (Wistar rat, 160-180 g, no feed restriction) is digested with collagenase, and the resulting single lipocytes are washed several times by flotation.
(§2) The two following tests measure the glucose uptake which can be stimulated by insulin and which requires the functional insulin signal-transmission cascade and glucose transport, irrespective of whether glucose is metabolized by oxidation (glycolysis, pentose phosphate pathway) or not by oxidation. The conversion into lipids, glycogen or membrane-impermeable intermediates (glucose 6-phosphate), but not the production of lactate, is followed.
a) Rat lipocytes are incubated in the presence or absence of insulin or peptide with D-[U-^14 C]-glucose (final concentration of D-glucose 22 μM). The cells are separated from the medium by centrifugation through a silicone oil layer and are reisolated, and the cell-associated radioactivity is determined.

Experiment [5] has as its system Pieces of diaphragm. Description: Glucose transport, 2-deoxy-D-[1-3H]-glucose, pieces of diaphragm. The experiment is classed as cell-based, rat. Conditions: glucose 0.1 mM. As for the experimental part: (§3) Preparation of pieces of diaphragm from rats: small pieces of tissue (5 mm diameter) are punched out of hemidiaphragms (Wistar rat, 60-70 g, no feed restriction) washed several times.
Lipocytes and pieces of diaphragm are prepared as in Example 5. The following tests measure exclusively the specific glucose transport which can be stimulated by insulin (facilitated diffusion) through the plasma membrane by means of glucose carriers, including the insulin signal-transmission cascade. Any effect of glucose metabolism on glucose transport is ruled out by using the non-metabolizable glucose analog.
b) Pieces of diaphragm are incubated in the presence or absence of insulin or peptide with 2-deoxy-D-[1-^3 H]-glucose (final concentration of D-glucose 0.1 mM) and L-[1-^14 C]-glucose. The pieces of tissue are separated from the medium by rapid filtration through glass fiber filters and are thoroughly washed. The radioactivity is measured in an alkaline extract.

Experiment [6] relates to Pieces of diaphragm. Nature of the experiment: Glucose uptake, D-[U-14C]-glucose, pieces of diaphragm. The format is cell-based, rat. Conditions: D-glucose 75 μM. As for the experimental part: as §1, §3, §2
b) Pieces of diaphragm are incubated in the presence or absence of insulin or peptide with D-[U-^14 C]-glucose (final concentration of D-glucose 75 μM). The medium is aspirated out. The pieces of tissue are washed several times and subsequently solubilized by alkali treatment for the determination of radioactivity.

Turning to “H-Tyr(Bu^t)-Gln-Leu-Glu(OBu^t)-Asn-Tyr(Bu^t)-Cys(Trt-Asn-Obu^t.HBr [Octapeptide]”, the “Blood glucose level, percentage difference to control group” value in the experiment on Balb-C mice (500 μg/animal, 20 minutes) is recorded as -2%; in the experiment on Balb-C mice (500 μg/animal, 40 minutes), -5%; in the experiment on Balb-C mice (500 μg/animal, 60 minutes) it was -13%; in the experiment on Balb-C mice (500 μg/animal, 75 minutes) it was -21%; in the experiment on Balb-C mice (500 μg/animal, 90 minutes) it was -21%; with Balb-C mice (1000 μg/animal, 20 minutes), -31%. Further, the “Blood glucose level, percentage difference to control group” value is on record as -19% with Balb-C mice (1000 μg/animal, 40 minutes); -23% in the experiment on Balb-C mice (1000 μg/animal, 60 minutes); -24% with Balb-C mice (1000 μg/animal, 75 minutes); -19% in the experiment with Balb-C mice (1000 μg/animal, 90 minutes).
Consider `NC(=O)C[C@H](NC(=O)[C@H](CS)NC(=O)[C@@H](N)Cc1ccc(O)cc1)C(=O)O` [Tripeptide, H-Tyr-Cys-Asn-OH] (H-Tyr-Cys-Asn-OH), for which the results for the Esterification with lipocytes in the experiment with Rat lipocytes [1] (peptide 0.5 mM), in the experiment on Rat lipocytes [1] (peptide 0.1 Mm) and in the experiment with Rat lipocytes [1] (peptide 1 Mm) were 4422 dpm, 3710 dpm and 5398 dpm, respectively. The Glucose transport in the experiment on Rat lipocytes [2] (peptide 0.1 Mm) is recorded as 2289 dpm; in the experiment with Rat lipocytes [2] (peptide 0.5 Mm), 3055 dpm; in the experiment on Rat lipocytes [2] (peptide 1 Mm), 5781 dpm; in the experiment on Pieces of diaphragm [5] (peptide 0.1 Mm), 8836 dpm; with Pieces of diaphragm [5] (peptide 0.5 Mm) it was 9822 dpm; with Pieces of diaphragm [5] (peptide 1 Mm), 11252 dpm. For the same compound, the values for the Lipogenesis in the experiment on Rat lipocytes [3] (peptide 0.5 mM), in the experiment with Rat lipocytes [3] (peptide 0.1 Mm) and with Rat lipocytes [3] (peptide 1 Mm) were 4145 dpm, 3250 dpm and 5072 dpm, respectively. Besides, the Glucose uptake amounted to 1838 dpm in the experiment on Rat lipocytes [4] (peptide 0.1 Mm); 2947 dpm in the experiment on Rat lipocytes [4] (peptide 0.5 Mm); 6533 dpm in the experiment with Rat lipocytes [4] (peptide 1 Mm); 7591 dpm with Pieces of diaphragm [6] (peptide 0.1 Mm); 8540 dpm in the experiment with Pieces of diaphragm [6] (peptide 0.5 Mm); 11588 dpm in the experiment with Pieces of diaphragm [6] (peptide 1 Mm).
As to Insulin: insulin means human insulin, the Esterification with lipocytes with Rat lipocytes [1] (insulin 5 ng) stood at 3640 dpm. Besides, the Glucose transport with Rat lipocytes [2] (insulin 0.5 ng) was 4851 dpm; in the experiment with Rat lipocytes [2] (insulin 5 ng), 20342 dpm; in the experiment on Pieces of diaphragm [5] (insulin 0.5 ng), 10828 dpm; with Pieces of diaphragm [5] (insulin 5 ng) it was 17750 dpm. This compound also displayed a Lipogenesis in the experiment with Rat lipocytes [3] (insulin 5 ng) of 3087 dpm. Moreover, the Glucose uptake is recorded as 4379 dpm with Rat lipocytes [4] (insulin 0.5 ng), 26312 dpm with Rat lipocytes [4] (insulin 5 ng), 10055 dpm in the experiment on Pieces of diaphragm [6] (insulin 0.5 ng) and 20841 dpm in the experiment on Pieces of diaphragm [6] (insulin 5 ng).
Turning to “Ac-LENYCN-OH [Hexapeptide, Acetyl-Leu-Glu-Asn-Tyr-Cys-Asn-OH]”, the Glucose transport stood at 2218 dpm in the experiment on Rat lipocytes [2] (peptide 0.1 Mm); 2842 dpm in the experiment on Rat lipocytes [2] (peptide 0.5 Mm); 3922 dpm in the experiment on Rat lipocytes [2] (peptide 1 Mm); 8450 dpm in the experiment with Pieces of diaphragm [5] (peptide 0.1 Mm); 8928 dpm in the experiment on Pieces of diaphragm [5] (peptide 0.5 Mm); 9676 dpm in the experiment with Pieces of diaphragm [5] (peptide 1 Mm). Also, the Glucose uptake came to 1488 dpm with Rat lipocytes [4] (peptide 0.1 Mm); 1917 dpm in the experiment on Rat lipocytes [4] (peptide 0.5 Mm); 4218 dpm in the experiment on Rat lipocytes [4] (peptide 1 Mm); 7429 dpm in the experiment with Pieces of diaphragm [6] (peptide 0.1 Mm); 7752 dpm in the experiment with Pieces of diaphragm [6] (peptide 0.5 Mm); 8597 dpm in the experiment with Pieces of diaphragm [6] (peptide 1 Mm).
